The values that follow come from PMC7114193 (Antiviral Research, 2012).

One assay concerns the target rhACE2 (Homo sapiens, UniProt Q9BYF1). The assay is classed as binding.
In assay [1] the test system is spike protein and ACE2 interaction. The following applies: cited from earlier work.

rhACE2, sequence (Q9BYF1 18-740): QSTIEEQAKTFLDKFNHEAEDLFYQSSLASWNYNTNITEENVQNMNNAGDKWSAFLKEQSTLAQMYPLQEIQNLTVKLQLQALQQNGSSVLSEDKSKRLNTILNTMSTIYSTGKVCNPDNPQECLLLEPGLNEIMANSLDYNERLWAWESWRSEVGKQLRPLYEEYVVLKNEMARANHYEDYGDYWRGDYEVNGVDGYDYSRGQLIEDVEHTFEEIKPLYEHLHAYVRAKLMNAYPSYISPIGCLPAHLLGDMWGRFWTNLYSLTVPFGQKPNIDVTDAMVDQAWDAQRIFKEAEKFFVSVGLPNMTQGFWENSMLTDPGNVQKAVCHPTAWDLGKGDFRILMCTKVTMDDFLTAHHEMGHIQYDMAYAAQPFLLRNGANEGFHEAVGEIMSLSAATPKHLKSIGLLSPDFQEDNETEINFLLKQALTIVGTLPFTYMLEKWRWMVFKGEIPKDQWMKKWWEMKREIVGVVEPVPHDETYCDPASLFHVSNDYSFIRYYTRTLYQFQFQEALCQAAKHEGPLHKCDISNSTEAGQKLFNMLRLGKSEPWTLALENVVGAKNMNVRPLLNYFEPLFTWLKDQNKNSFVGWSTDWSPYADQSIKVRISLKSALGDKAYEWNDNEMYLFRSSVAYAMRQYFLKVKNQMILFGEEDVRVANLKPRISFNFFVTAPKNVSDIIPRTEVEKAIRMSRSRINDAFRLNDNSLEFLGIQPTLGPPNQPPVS

Regarding ALNSYW [RBD-14a], the SPR response at rhACE2 is on record as 5 RU.
For the substance FYTTTGIGYQPY [SP-8], in assay [1], the “inhibition of spike protein and ACE2 interaction (in words)” value is on record as “inhibitory activity”.
Consider IGYQPY [RBD-15c], for which the “SPR binding to ACE2 (in words)” value on rhACE2 is “no interaction observable”.
On rhACE2, NYNYKY [RBD-11a] gave an SPR response signal of 5 RU.
For SYWPLN [RBD-14b], at rhACE2, the “SPR binding to ACE2 (in words)” value was “only weak interaction” and the SPR response was 7 RU.
As for YDYRYL, the “SPR binding to ACE2 (in words)” value at rhACE2 is reported as “No binding was observed”.
For the substance YKYDYL, the “SPR binding to ACE2 (in words)” value on rhACE2 is reported as “No binding was observed”.
